# Test results taken from patent US11180474B2 (BRISTOL-MYERS SQUIBB COMPANY, priority 2016, dated 2021).
# pIC50: −log10 of the molar value. Structures can show the parent of a compound that is named as a salt.
# How the values were obtained:
# human TLR7 = target: T1, human TLR7 (Homo sapiens, UniProt Q9NYK1); assay: TLR7 inhibition reporter assay (HEK-Blue cells, SEAP reporter, gardiquimod stimulation); assay type: cell-based; settings: HEK-Blue cells overexpressing human TLR7, gardiquimod 7.5 μM
# T1 construct: host or cells: HEK-Blue cells
# T1 sequence (Q9NYK1 27-1049): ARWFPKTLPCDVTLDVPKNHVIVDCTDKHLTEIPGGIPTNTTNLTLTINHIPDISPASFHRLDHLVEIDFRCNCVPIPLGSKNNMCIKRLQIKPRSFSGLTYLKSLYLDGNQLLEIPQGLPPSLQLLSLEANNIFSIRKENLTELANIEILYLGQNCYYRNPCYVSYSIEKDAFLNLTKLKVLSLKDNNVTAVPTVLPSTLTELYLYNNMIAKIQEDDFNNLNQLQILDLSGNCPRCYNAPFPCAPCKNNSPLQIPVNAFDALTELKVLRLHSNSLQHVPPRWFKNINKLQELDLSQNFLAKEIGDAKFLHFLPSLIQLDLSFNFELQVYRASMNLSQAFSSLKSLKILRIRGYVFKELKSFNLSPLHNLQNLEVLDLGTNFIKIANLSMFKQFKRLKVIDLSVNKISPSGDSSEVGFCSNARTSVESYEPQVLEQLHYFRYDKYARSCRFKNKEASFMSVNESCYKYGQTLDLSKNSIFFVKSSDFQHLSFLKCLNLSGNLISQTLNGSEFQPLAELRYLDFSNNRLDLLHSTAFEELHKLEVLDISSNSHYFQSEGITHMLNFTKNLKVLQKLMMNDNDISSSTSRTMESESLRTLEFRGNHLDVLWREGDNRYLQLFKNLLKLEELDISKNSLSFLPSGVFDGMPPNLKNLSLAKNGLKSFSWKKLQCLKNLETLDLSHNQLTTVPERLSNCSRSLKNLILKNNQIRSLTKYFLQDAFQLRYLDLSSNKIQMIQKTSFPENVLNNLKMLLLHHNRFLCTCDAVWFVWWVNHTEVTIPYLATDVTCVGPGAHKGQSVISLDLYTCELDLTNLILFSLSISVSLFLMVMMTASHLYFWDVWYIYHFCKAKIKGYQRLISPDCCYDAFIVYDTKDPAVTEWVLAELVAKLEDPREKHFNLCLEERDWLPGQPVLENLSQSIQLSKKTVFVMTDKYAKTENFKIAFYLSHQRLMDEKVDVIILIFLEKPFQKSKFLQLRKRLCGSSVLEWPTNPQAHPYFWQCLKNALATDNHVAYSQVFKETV
# Procedure: (§1) TLR7/8/9 Inhibition Reporter Assays
# Briefly, cells are seeded into Greiner 384 well plates (15000 cells per well for TLR7, 20,000 for TLR8 and 25,000 for TLR9) and then treated with test compounds in DMSO to yield a final dose response concentration range of 0.05 nM-50 μM. […] After a 22 hour incubation at 37° C., 5% CO2, SEAP levels are determined with the addition of HEK-Blue™ Detection reagent (Invivogen), a cell culture medium that allows for detection of SEAP, according to manufacturer's specifications. The percent inhibition is determined as the % reduction in the HEK-Blue signal present in wells treated with agonist plus DMSO alone compared to wells treated with a known inhibitor.
# human TLR9 = target: T2, human TLR9 (Homo sapiens, UniProt Q9NR96); assay: TLR9 inhibition reporter assay (HEK-Blue cells, SEAP reporter, ODN2006 stimulation); assay type: cell-based; settings: HEK-Blue cells overexpressing human TLR9, ODN2006 5 nM
# T2 construct: host or cells: HEK-Blue cells
# T2 sequence (Q9NR96 26-1032): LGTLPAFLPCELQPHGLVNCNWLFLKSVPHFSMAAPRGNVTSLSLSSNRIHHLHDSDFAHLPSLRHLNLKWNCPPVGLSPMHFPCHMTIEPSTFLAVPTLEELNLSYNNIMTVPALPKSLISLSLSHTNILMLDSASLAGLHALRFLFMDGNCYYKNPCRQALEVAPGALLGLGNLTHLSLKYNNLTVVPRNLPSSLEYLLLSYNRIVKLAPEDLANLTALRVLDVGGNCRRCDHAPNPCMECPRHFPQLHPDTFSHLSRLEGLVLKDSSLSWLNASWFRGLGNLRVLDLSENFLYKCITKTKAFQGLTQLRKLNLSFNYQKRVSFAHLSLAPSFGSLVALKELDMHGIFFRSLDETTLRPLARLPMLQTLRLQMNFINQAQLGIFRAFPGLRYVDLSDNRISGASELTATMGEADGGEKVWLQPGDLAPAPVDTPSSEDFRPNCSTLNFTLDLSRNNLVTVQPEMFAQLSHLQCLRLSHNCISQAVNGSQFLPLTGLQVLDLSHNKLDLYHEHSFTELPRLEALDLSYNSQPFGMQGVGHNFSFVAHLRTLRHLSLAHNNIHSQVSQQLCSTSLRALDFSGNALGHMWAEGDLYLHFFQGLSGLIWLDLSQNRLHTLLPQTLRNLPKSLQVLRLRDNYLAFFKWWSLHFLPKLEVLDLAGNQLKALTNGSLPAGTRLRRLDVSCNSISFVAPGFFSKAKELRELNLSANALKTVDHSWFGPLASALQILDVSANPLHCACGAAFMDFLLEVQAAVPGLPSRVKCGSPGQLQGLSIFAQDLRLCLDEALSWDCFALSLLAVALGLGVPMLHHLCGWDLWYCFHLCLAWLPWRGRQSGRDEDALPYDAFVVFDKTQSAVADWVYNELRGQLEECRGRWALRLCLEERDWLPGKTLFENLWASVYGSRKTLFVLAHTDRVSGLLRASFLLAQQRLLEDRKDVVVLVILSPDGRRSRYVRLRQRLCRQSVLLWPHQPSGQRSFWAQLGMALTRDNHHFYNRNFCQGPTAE
# Procedure: as §1
# HEK-Blue™-cells (Invivogen) overexpressing human TLR7, TLR8 or TLR9 receptors were used for screening inhibitors of these receptors using an inducible SEAP (secreted embryonic alkaline phosphatase) reporter gene under the control of the IFN-β minimal promoter fused to five NF-κB and AP-1-binding sites. Briefly, cells are seeded into Greiner 384 well plates (15000 cells per well for TLR7, 20,000 for TLR8 and 25,000 for TLR9) and then treated with test compounds in DMSO to yield a final dose response concentration range of 0.05 nM-50 μM. After a 30 minute compound pre-treatment at room temperature, the cells are then stimulated with a TLR7 ligand (gardiquimod at a final concentration of 7.5 μM), TLR8 ligand (R848 at a final concentration of 15.9 μM) or TLR9 ligand (ODN2006 at a final concentration of 5 nM) to activate NF-κB and AP-1 which induce the production of SEAP. After a 22 hour incubation at 37° C., 5% CO2, SEAP levels are determined with the addition of HEK-Blue™ Detection reagent (Invivogen), a cell culture medium that allows for detection of SEAP, according to manufacturer's specifications. The percent inhibition is determined as the % reduction in the HEK-Blue signal present in wells treated with agonist plus DMSO alone compared to wells treated with a known inhibitor.
SMILES,pIC50 (human TLR7),pIC50 (human TLR9)
"CCOC(=O)N1CCC(N2CCC(c3ccc4[nH]c(-c5ccc(OC)c(OC)c5)c(C)c4c3)CC2)C1 (centres unmarked) [Example 13, ethyl 3-(4-(2-(3,4-dimethoxyphenyl)-3-methyl-1H-indol-5-yl)piperidin-1-yl) pyrrolidine-1-carboxylate]",≤ 4.30,5.97
"COc1ccc(-c2[nH]c3ccc(C4CCN(Cc5ccc(OCCCN(C)C)cc5)CC4)cc3c2C)cc1OC [Example 38, 3-(4-((4-(2-(3,4-dimethoxyphenyl)-3-methyl-1H-indol-5-yl)piperidin-1-yl)methyl)phenoxy)-N,N-dimethylpropan-1-amine]",6.18,6.68
"COc1ccc(-c2[nH]c3ccc(C4CCN(Cc5csnn5)CC4)cc3c2C)cc1OC [Example 41, 4-((4-(2-(3,4-dimethoxyphenyl)-3-methyl-1H-indol-5-yl)piperidin-1-yl)methyl)-1,2,3-thiadiazole]",5.63,5.42
"CCC(C)CN1CCC(N2CCC(c3ccc4[nH]c(-c5ccc(OC)c(OC)c5)c(C)c4c3)CC2)CC1 (centres unmarked) [Example 51, 2-(3,4-dimethoxyphenyl)-3-methyl-5-(1′-(2-methylbutyl)-[1,4′-bipiperidin]-4-yl)-1H-indole]",6.62,7.05
"CCC(C)N1CCC(N2CCC(c3ccc4[nH]c(-c5ccc(OC)c(OC)c5)c(C)c4c3)CC2)CC1 (centres unmarked) [Example 71, 5-(1′-(sec-butyl)-[1,4′-bipiperidin]-4-yl)-2-(3,4-dimethoxyphenyl)-3-methyl-1H-indole]",6.27,7.01
"COc1ccc(-c2[nH]c3ccc(C4CCN(C5CCNCC5)CC4)cc3c2C)cc1OC [Example 2, 5-([1,4′-bipiperidin]-4-yl)-2-(3,4-dimethoxyphenyl)-3-methyl-1H-indole dihydrochloride]",6.01,6.69

# Now from value to molecule:
pIC50 (human TLR7),pIC50 (human TLR9),SMILES
6.93,5.72,"CCc1c(-c2ccc(OC)c(OC)c2)[nH]c2ccc(C3CCN(C(=O)CNC4(CO)CCCC4)CC3)cc12 [Example 160, 1-(4-(2-(3,4-dimethoxyphenyl)-3-ethyl-1H-indol-5-yl)piperidin-1-yl)-2-((1-(hydroxymethyl)cyclopentyl)amino)ethan-1-one]"
5.60,6.73,"COc1ccc(-c2[nH]c3ccc(C4CCN(C5CCCN(C6COC6)CC5)CC4)cc3c2C)cc1OC (centres unmarked) [Example 96, 2-(3,4-dimethoxyphenyl)-3-methyl-5-(1-(1-(oxetan-3-yl)azepan-4-yl)piperidin-4-yl)-1H-indole]"
6.60,6.50,"COc1ccc(-c2[nH]c3ccc(C4CCN(CCN(C)CC5CC5)CC4)cc3c2C)cc1OC [Example 112, N-(cyclopropylmethyl)-2-(4-(2-(3,4-dimethoxyphenyl)-3-methyl-1H-indol-5-yl)piperidin-1-yl)-N-methylethan-1-amine]"
6.28,6.66,"COc1ccc(-c2[nH]c3ccc(C4CCN(C5CCN(CCC(C)C)CC5)CC4)cc3c2C)cc1OC [Example 77, 2-(3,4-dimethoxyphenyl)-5-(1′-isopentyl-[1,4′-bipiperidin]-4-yl)-3-methyl-1H-indole]"
6.59,5.78,"CCc1c(-c2ccc(OC)c(OC)c2)[nH]c2ccc(C3CCN(C(=O)CN(C)C(C)C)CC3)cc12 [Example 170, 1-(4-(2-(3,4-dimethoxyphenyl)-3-ethyl-1H-indol-5-yl)piperidin-1-yl)-2-(isopropyl(methyl)amino) ethan-1-one]"
6.04,6.51,"COc1ccc(-c2[nH]c3ccc(C4CCN(C5CCCNC5)CC4)cc3c2C)cc1OC (centres unmarked) [Example 106, 5-([1,3′-bipiperidin]-4-yl)-2-(3,4-dimethoxyphenyl)-3-methyl-1H-indole]"
6.67,≤ 4.30,"COc1ccc(-c2[nH]c3ccc(C4CCN(C(=O)CNc5cc(C(C)(C)C)n[nH]5)CC4)cc3c2C(C)C)cc1OC [Example 216, 2-((3-(tert-butyl)-1H-pyrazol-5-yl)amino)-1-(4-(2-(3,4-dimethoxyphenyl)-3-isopropyl-1H-indol-5-yl)piperidin-1-yl)ethan-1-one]"
